Test results taken from patent US10501413B2, “Inhibitors of the Notch transcriptional activation complex and methods for use of the same” (UNIVERSITY OF MIAMI, priority 2015, dated 2019).

What was measured:
[1] = target: CSL (Homo sapiens, UniProt Q06330); assay: Surface plasmon resonance binding to CSL; conditions: SPR, equilibrium response fitted to 1:1 binding model
Procedure: (§1) The inhibitors described herein were subjected to surface plasmon resonance (“SPR”) to determine their binding constants to the NICD and CSL components of the NTC. In particular, the target protein (NICD1) was immobilized on the dextran surface of the SPR sensor chip. Through a microflow system, a solution with the inhibitor was injected over the immobilized protein layer. The inhibitor bound to the immobilized protein, which led to an increase in SPR signal, indicating association of the ligand to the target protein. After 45 seconds, buffer solution was injected on the microfluidics that dissociated the bound complex between the ligand and the inhibitor. As the inhibitor dissociated from the ligand, a decrease in SPR signal was observed. The equilibrium dissociation constant KD was determined by plotting the equilibrium response (Req) as a function of the concentration of the ligand, and fitting the data to a 1:1 binding model. The results are listed in […].

[2] = target: T1, Notch transcriptional activation complex (CSL, Notch1, MAML1 on DNA) (Homo sapiens, UniProt P46531+Q06330); assay: Notch complex assembly assay (ALPHASCREEN); type: biochemical
T1 construct: the intracellular domain of Notch (“NICD”); made in house; host or cells: SF21 insect cells (baculovirus)
Source text: An in vitro assay was developed to monitor the assembly of the Notch transcriptional complex (“NTC”) on DNA. The NTC, which includes the Notch, Mastermind (“MAML1”), and CSL proteins, binds to a specific DNA sequence in a CSL-dependent manner. For the assay, baculovirus produced CSL, Notch, and MAML1 were mixed together with a biotinylated DNA oligomer containing the CSL target sequence. Assembly of the NTC on DNA was then monitored with the proximity-based ALPHASCREEN (Perkin Elmer) using streptavidin and protein A beads (FIGS. 1A and 1B). A signal results when MAML1 is recruited to CSL bound DNA.
All recombinant proteins were expressed using baculovirus expression vectors in SF21 cells and purified. Unless otherwise stated, all assays contained 125 fmol of double stranded oligonucleotide, CSL, Notch1 and MAML1 proteins. Reactions were carried out in Tris-buffered saline with 0.1% Tween (“TBS-T”) buffer containing 0.2% bovine serum albumin (“BSA”) and 100 ug/mL salmon sperm DNA. Briefly, the Notch complex was assembled on a biotinylated double stranded (“DS”) oligonucleotide harboring one CSL binding site (5′-[…]-3′). Complex assembly was quantitated using ALPHASCREEN technology (Perkin Elmer). Proteins in the complexes were detected using specific antibodies to either MAML1 (Cell signaling, D3K7B), Notch1 (Abcam, 52627) or CSL (anti-His, Abcam 18184). Streptavidin conjugated acceptor beads (Perkin Elmer, 6760002) were used to bind the DS oligonucleotide, and Protein-A conjugated donor beads (Perkin Elmer, 6760137) were used to detect antibody-coated proteins. For screening compounds, Notch transcriptional activation complex (“NTC”) components were added to wells that already contained the inhibitor to be assayed and allowed to incubate for 30 minutes. The ALPHASCREEN plate (Perkin Elmer, 6008350) was then read on an Envision Plate reader (Perkin Elmer) as specified by the manufacturer.
Determination of Equilibrium Dissociation Constants (KD) and Half Maximal Inhibitory Concentrations (IC50)

[3] = target: T2, NICD1 (Homo sapiens, UniProt P46531); assay: Surface plasmon resonance binding to immobilized NICD; conditions: SPR, equilibrium response fitted to 1:1 binding model
T2 construct: the intracellular domain of Notch (“NICD”)
Procedure: as §1

[4] = system: Notch target gene transcription; assay: RT-qPCR of Notch target genes in cancer cell lines; type: cell-based, human
Procedure: (§2) The effect of inhibitor treatment on Notch-target gene transcription also was investigated (FIGS. 2C and 2D). […] As proof of specificity, transcription of the housekeeping gene, HPRT, was unaltered in treated cells. To test the effects of Notch inhibition on proliferation, a colony formation assay was performed.
(§3) To extend the analysis of tumor cell growth inhibition, several commonly used cancer cell lines were selected to test for sensitivity to Inhibitor No. 1-134-83 (FIGS. 3A and 3B). […] In this analysis, sensitivity to DAPT is taken to indicate specific inhibition of Notch activity. […] Cells that are refractory to DAPT were equally resistant to Inhibitor No. 1-134-83.
RT-PCR analysis was performed using TaqMan probes according to manufacturer's instructions. In particular, 80 ng of RNA equivalent was used per reaction. Gene expression was normalized to the TATA-binding protein (“TBP”) gene. As a control, hypoxanthine phosphoribosyltransferase 1 (“HPRT”) gene expression was also monitored.

[5] = system: cancer cell lines (OE33, 786-0 and panel); assay: Colony formation assay; type: cell-based, human; conditions: 7 days
Procedure: as §2, §3
Cells were plated into a 6 well plate at a density of 2000 cells/cm^2. Inhibitor treatment commenced 24 hours post seeding, and the media containing inhibitor was changed every 48 hours thereafter. After 168 hours, cells were fixed with ice cold methanol for 10 minutes, stained for 1 hour with crystal violet, de-stained with water, and allowed to dry.

[6] = system: esophageal adenocarcinoma PDX tumors; assay: Esophageal adenocarcinoma patient-derived xenograft (PDX); type: in vivo, mouse; conditions: NSG mice, two PDX models, daily IP, 1-134-83 15 mg/kg, DAPT 20 mg/kg
Procedure: The effect of the inhibitors of the disclosure on the growth of an established tumor also was investigated using two independent esophageal adenocarcinoma patient-derived xenograft (“PDX”) models. Tumors were established in NSG mice to the size of 250 mm^3 prior to the initiation of treatment. Mice were dosed daily via intraperitoneal (“IP”) injection with either Inhibitor No. 1-134-83 (15 mg/kg) or DAPT (20 mg/kg), and compared to DMSO vehicle control. […] Following 24 days of treatment, tumors were harvested and Notch-target gene transcription was evaluated. […] (FIG. 4) Six-week-old NOD-SCID gamma (“NSG”) mice were purchased from Jackson Laboratories and CD-1 Nude mice were purchased from Charles River Laboratories. For the cell line based xenografts assay, 5×10^6 OE19 cells in 200 μl serum-free culture medium were injected subcutaneously per mouse. The mice in the treatment group were injected with 15 mg/kg of Inhibitor No. 1-134-83 daily, and the mice in the control group were injected with the same volume of vehicle (DMSO). Subcutaneous tumor growth was measured once every 4 days using calipers along with body weight. The experiment was discontinued on day 28. PDX cancer models were established, as described in Zhang et al, Establishment of Patient-Derived Xenograft (PDX) Models of Human Breast Cancer, Current Protocols in Mouse Biology, 3:21-29 (2013), in NSG mice. Briefly, 10 mm^3 pieces of primary EAC29 PDX tumor were transplanted subcutaneously into the flanks of NSG mice using a 13G telescopic needle. When the tumors reached 200 mm^3, the mice were split into two uniform groups for treatment. Compound 1-134-83 (15 mg/kg) and vehicle were administered daily by inraperitoneal (“IP”) injection for 24 days. Tumor growth was monitored every 4 days and tumor volume was measured by the formula: Volume=(S×S×L)/2, where S and L are the short and long dimensions. The xenograft tumors were harvested, weighed and samples were subjected to histological examination and by qPCR.

[7] = system: NICD in OE33 and 786-0 cells; assay: Western analysis of NICD levels; type: cell-based, human; conditions: OE33 and 786-0 cell lysates
Procedure: (§4) The effect of inhibitor treatment on the assembly of the NTC in cells was investigated.
Protein analysis was carried out using conventional SDS-PAGE and transfer techniques. Blots were probed with the indicated antibody (“Ab”), using standard conditions, and detected using enhanced chemiluminescence (“ECL”). The following Ab were used: anti-Notch1 (ab52627, abcam), anti-Notch1^val1744 (4147S, Cell Signaling Technology) and anti-GAPDH (ab9483, Abcam).

[8] = system: MAML1 and Notch1 occupancy on HES1 promoter in OE33 and 786-0 cells; assay: Chromatin immunoprecipitation (ChIP) on the HES1 locus; type: cell-based, human; conditions: 24 hours
Procedure: as §4
Cells (8×10^6 OE33 cells or 10×10^6 786-0 cells) were plated onto a 15 cm tissue culture dish a day prior to treatment. Cells were then treated for 24 hours with (N—[N-(3,5-difluorophenacetyl)-L-alanyl]-S-phenylglycine t-butyl ester (“DAPT”, 5 μM), Inhibitor No. 1-134-83 (25 μM), or DMSO vehicle. Following treatment, cells were cross-linked for 10 minutes with 1% formaldehyde. The reaction was then stopped by adding […] glycine. Cells were collected in SDS lysis buffer (1% SDS, 10 mM EDTA, 50 mM Tris-HCl pH 8.0) and sonicated to yield chromatin fragments of approximately 300 to 800 bp (8 minutes at high level for OE33 cells; 5 minutes at medium level for 786-0 cells in BIORUPTOR UCD-200 sonicator). Lysates were divided into equal parts and immunoprecipitated with either α-Notch1 (A301-894A, Bethyl Laboratories) or α-MAML1 (12166s, Cell Signaling Technology) antibody. Protein:DNA immunoprecipitates were then reverse cross-linked at 65° C. in 200 mM NaCl for 4 hours, followed by incubation with RNase A and proteinase K. DNA was then purified using a PCR purification kit (28104,
Qiagen). Immunoprecipitated DNA was then detected by SYBR green qPCR using HES1 specific oligonucleotide primers (forward: 5′CGTGTCTCCTCCTCCCATT3′; reverse: 5′GGGGGATTCCGCTGTTAT3′).

Chain of CSL (Q06330 whole entry): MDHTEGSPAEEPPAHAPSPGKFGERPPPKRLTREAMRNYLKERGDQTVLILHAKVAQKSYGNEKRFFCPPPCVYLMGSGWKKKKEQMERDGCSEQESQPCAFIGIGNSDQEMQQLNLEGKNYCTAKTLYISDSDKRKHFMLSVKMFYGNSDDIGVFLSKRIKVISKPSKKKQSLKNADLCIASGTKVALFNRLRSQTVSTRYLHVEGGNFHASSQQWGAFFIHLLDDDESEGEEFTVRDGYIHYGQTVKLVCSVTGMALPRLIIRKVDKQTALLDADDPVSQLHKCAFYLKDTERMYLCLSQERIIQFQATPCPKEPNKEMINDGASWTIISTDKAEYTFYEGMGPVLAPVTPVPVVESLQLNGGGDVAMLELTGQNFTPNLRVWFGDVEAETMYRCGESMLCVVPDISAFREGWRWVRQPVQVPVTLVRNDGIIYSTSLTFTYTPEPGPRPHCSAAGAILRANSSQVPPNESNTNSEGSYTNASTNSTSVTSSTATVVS
T2 sequence (P46531 1754-2555 limits assumed): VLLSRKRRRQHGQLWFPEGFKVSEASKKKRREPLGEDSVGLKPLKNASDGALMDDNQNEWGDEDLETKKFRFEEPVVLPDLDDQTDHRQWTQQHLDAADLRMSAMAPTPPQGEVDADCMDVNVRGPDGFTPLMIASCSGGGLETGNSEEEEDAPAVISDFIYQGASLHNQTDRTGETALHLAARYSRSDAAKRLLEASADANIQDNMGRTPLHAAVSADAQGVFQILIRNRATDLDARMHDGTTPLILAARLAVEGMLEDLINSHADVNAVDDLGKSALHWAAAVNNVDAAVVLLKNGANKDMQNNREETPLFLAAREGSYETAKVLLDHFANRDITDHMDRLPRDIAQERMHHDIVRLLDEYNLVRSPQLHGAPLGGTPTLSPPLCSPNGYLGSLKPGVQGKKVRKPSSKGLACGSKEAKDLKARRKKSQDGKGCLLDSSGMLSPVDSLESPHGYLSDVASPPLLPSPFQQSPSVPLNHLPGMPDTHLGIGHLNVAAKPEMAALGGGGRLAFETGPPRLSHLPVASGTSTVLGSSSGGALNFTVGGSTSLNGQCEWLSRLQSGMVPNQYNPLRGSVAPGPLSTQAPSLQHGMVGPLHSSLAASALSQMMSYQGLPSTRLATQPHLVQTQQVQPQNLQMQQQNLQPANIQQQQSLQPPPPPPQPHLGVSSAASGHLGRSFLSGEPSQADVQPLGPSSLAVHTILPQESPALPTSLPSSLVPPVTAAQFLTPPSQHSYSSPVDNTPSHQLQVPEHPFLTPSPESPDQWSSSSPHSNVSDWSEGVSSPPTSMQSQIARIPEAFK
T1 sequence (P46531 1754-2555 limits assumed): as above
T1 sequence (Q06330 whole entry, the tested form may be a part): as the sequence (Q06330 whole entry) above

| Structure (SMILES) | Kd [1] | IC50 [2] | Kd [3] | also measured |
| --- | --- | --- | --- | --- |
| C=CCc1cc(/C=C2\SC(=S)NC2=O)cc(OC)c1OCC(=O)O [1-134] | 15 ± 3 µM | 6 µM | 17 ± 5 µM | – |
| COc1cccc(/C=C2\SC(=S)N(CC(=O)N(C)C)C2=O)c1O [NADi-203, (Z)-2-(5-(2-Hydroxy-3-methoxybenzylidene)-4-oxo-2-thioxothiazolidin-3-yl)-N,N-dimethylacetamide] | 6.4 ± 0.7 µM | 0.5 µM | 5.7 ± 0.9 µM | – |
| CN(C)C(=O)CN1C(=O)/C(=C/c2cc(F)ccc2O)SC1=S [NADi-239, (Z)-2-(5-(5-Fluoro-2-hydroxybenzylidene)-4-oxo-2-thioxothiazolidin-3-yl)-N,N-dimethylacetamide] | 13 ± 2 µM | 0.5 µM | 3.7 ± 0.8 µM | – |
| C[C@H](NC(=O)Cc1cc(F)cc(F)c1)C(=O)N[C@H](C(=O)OC(C)(C)C)c1ccccc1 [DAPT, N—[N-(3,5-difluorophenacetyl)-L-alanyl]-S-phenylglycine t-butyl ester, reference compound] | – | – | – | Notch target gene transcription ([4]; OE33 and 786-0 cells, qPCR): significant decrease; transcription of control gene HPRT ([4]; OE33 and 786-0 cells, qPCR): not affected; Notch target gene transcription ([4]; insensitive cancer cell lines of the panel, 48 hrs): do not show a statistically significant reduction; Notch target gene transcription ([4]; sensitive cancer cell lines of the panel, 48 hrs, DAPT 10, 1-134-83 15 and 25 μM): significantly reduced; colony formation ([5]; 786-0 and OE33 cells): inhibited the cell colony forming ability of cells; colony formation ([5]; sensitive (Notch dependent) cell lines): decrease in colony formation; growth of established tumor [6]: stunted growth to a similar level achieved with DAPT treatment; levels of NICD in cells [7]: decrease in the NICD pool; occupancy of MAML1 on the HES1 promoter [8]: decreased; occupancy of NOTCH1 on the HES1 promoter [8]: decreased |
| O=C(O)COc1ccccc1/C=C1\SC(=S)NC1=O [NADi-090] | 3.4 ± 0.7 µM | 0.07 µM | 25 ± 4 µM | – |
| COc1cc(/C=C2\SC(=S)NC2=O)ccc1OCC(=O)O [1-134-02] | 3.6 ± 0.9 µM | 0.5 µM | 2.9 ± 0.6 µM | – |
